From patent US8021658B2, “Alternative splice forms of proteins as basis for multiple therapeutic modalities” (Thomas Jefferson University, priority 2001, dated 2011)
Bridges are numbered along the chain shown (N, C = ends). Roman numbers before positions name the chains, in order. Where no end group is shown, it is not given here.

Assays:
HC2 20d2/c tumor cells = experiment: Regression of HC2 20d2/c tumors in mice vaccinated with VEGF peptides; assay type: in vivo; conditions: FIG. 2; for reduction in average tumor volume: by the end of the study; for tumor regression (average tumor volume vs. time): mice injected with HC2 20d2/c tumor cells, vaccinated four days post-injection with peptide plus murine GM-CSF
Procedure: The VEGF peptides and the SEQ ID NO: 85 homodimer were evaluated for their ability to elicit an anti-tumor immune response in a mouse tumor model. A total of 112 syngeneic mice were divided into eight treatment groups of 14 mice each, and injected with HC2 20d2/c tumor cells. Four days post-injection, the first through fifth treatment groups were vaccinated in the left inguinal area with 100 μg of either SEQ ID NO: 73, SEQ ID NO: 75, SEQ ID NO: 77, SEQ ID NO: 79, or the SEQ ID NO: 81 dimer diluted in 100 μl of PBS mixed with 45 ng of murine GM-CSF as an adjuvant. The total volume of phosphate buffered saline (PBS) was 150 microliters with 2 mg/ml mouse serum albumin as a carrier. The sixth treatment group was vaccinated as above with a combination of all four VEGF peptides and the SEQ ID NO: 81 homodimer (60 μg each) in a total of 200 microliters of PBS with 45 ng of murine GM-CSF and 2 mg/ml mouse serum albumin. The seventh treatment group was vaccinated as above with 100 μg of a peptide derived from a mutant epidermal growth factor receptor (EGFR) protein called EGFRvIII (SEQ ID NO: 82). The vaccine composition also contained 45 ng of murine GM-CSF and 2 mg/ml mouse serum albumin. The EGFRvIII mutation is the result of a genomic rearrangement in the EGFR gene, and the EGFRvIII peptide (SEQ ID NO: 82) is reported to induce an immune response against tumor cells expressing the mutant receptor. The eighth treatment group was vaccinated with GM-CSF and 2 mg/ml mouse serum albumin in PBS with no peptide, as a control. All treatment groups were then injected once daily for the next 3 days with the 45 ng GM-CSF in the original area of vaccination.

[1] = tested on: HC2 20d2/c tumor cells pulsed with the immunizing peptide; experiment: ELISPOT assay (anti-interferon-gamma) of cytotoxic T lymphocyte activity of splenocytes from immunized mice; assay type: cell-based; conditions: FIG. 5; for CTL response compared with mouse treated with SEQ ID NO: 82 (EGFRvIII): mice which had undergone tumor regression
Procedure: Briefly, the ELISPOT method is performed by coating a cell culture dish or well with a cytokine capture antibody, for example an anti-interferon gamma antibody. The unoccupied spots on the culture dish or well are then blocked with a non-specific binding protein. Target cells, for example tumor cells, that endogenously synthesize the alternative splice form which has been used to stimulate PBLs are added to the culture dish or well. Alternatively, target cells can be pulsed with the peptide of interest. Activated PBLs are then added to the culture dish or well. If the activated PBLs specifically lyse the target cells, the PBLs secrete cytokines such as interferon-gamma, which is captured by the cytokine capture antibody initially coated onto the culture dish or well. A secondary antibody that recognized a different epitope of interferon gamma is then used to detect the presence of any interferon-gamma secreted by the PBLs and captured by the cytokine capture antibody. The secondary antibody can be conjugated with a detectable label, such as fluorescent or radioactive label. Identification of peptides of the invention which induce MHC-restricted cytotoxic T lymphocyte responses by the ELISPOT method is shown in Example 5 below.
Splenocytes from mice inoculated with GM-CSF only were used as a control (“control”). HC2 20d2/c tumor cells pulsed with 10 micrograms/ml of the immunizing peptide, or mouse serum albumin (for splenocytes from GM-CSF only treated animals) were used as the target cells for the treatment and control splenocytes, respectively. Untreated HC2 20d2/c tumor cells were used as negative control target cells.
The splenocytes were incubated at various ratios (from 10:1 to 2:1) with target cells in triplicate, and lytic events were identified with an ELISPOT assay using anti-interferon-gamma antibody as the cytokine capture antibody. The specific spots per 10^6 cells were quantitated using the lytic events from untreated target cells as the background, and then performing linear regression analysis.

[2] = splenocytes of immunized mice which had undergone tumor regression, target cells pulsed with the vaccinating peptide

Row | Substance | reduction in average tumor volume (HC2 20d2/c tumor cells; HC2 20d2/c tumor model) | tumor regression (average tumor volume vs. time) (HC2 20d2/c tumor cells) | CTL response compared with mouse treated with SEQ ID NO: 82 (EGFRvIII) [1] | CTL response (ELISPOT) [1, 2] | CTL response (ELISPOT) ([1]; splenocytes of vaccinated mouse which had not undergone tumor regression) | time at which tumor regression is most notable (HC2 20d2/c tumor cells; HC2 20d2/c tumor model) [days after vaccination] | time until which regression is seen (HC2 20d2/c tumor cells; HC2 20d2/c tumor model) [days after vaccination] | tumor progression (HC2 20d2/c tumor cells; HC2 20d2/c tumor model) | tumor progression (HC2 20d2/c tumor cells; HC2 20d2/c tumor model, listed as SEQ ID NO: 81) | duration of initial tumor progression (HC2 20d2/c tumor cells; HC2 20d2/c tumor model, after vaccination)
1 | L E R S E S C E D R C P (LERSESCEDRCP; VEGFD alt splice #2 peptide) [SEQ ID NO: 79, peptide encoded by alternatively spliced murine VEGFD mRNA] | strong reduction in average tumor volumes |  |  |  |  |  |  |  |  | 
2 | R T K P E K C D K P R R (RTKPEKCDKPRR; VEGF alt splice #1) [SEQ ID NO: 73, peptide encoded by alternatively spliced mouse VEGF mRNA] |  | pattern of regression similar to that found for the EGFRvIII peptide | greater than that seen for the mouse treated with SEQ ID NO: 82 | strong CTL responses | poor CTL responses |  |  |  |  | 
3 | RTKPEKCDKPRRC (disulfide I:13-II:13; cysteine pairing not given here) [SEQ ID NO: 81 homodimer] | strong reduction in average tumor volumes | induce tumor regression to some degree |  |  |  | 12 | ~20 | initially shows tumor progression | progress from that point onward | 
4 | SEQ ID NO: 82: peptide derived from a mutant epidermal growth factor receptor (EGFR) protein called EGFRvIII (LEEKKGNYVVTDHC; EGFRvIII peptide) [reference compound] |  | distinct regression noted thereafter |  |  |  |  |  | progression was not as dramatic as the control mice |  | approximately 5 days
5 | V V K Q L V Q T P P L P P (VVKQLVQTPPLPP; VEGFB alt splice #1 peptide) [SEQ ID NO: 75, peptide encoded by alternatively spliced murine VEGFB mRNA] |  |  | greater than that seen for the mouse treated with SEQ ID NO: 82 | strong CTL responses |  |  | ~20 | progress from that point onward |  | 
